Data as given in patent US20220241402A1, “COMBINATION OF HEPATITIS B VIRUS (HBV) VACCINES AND QUINAZOLINE DERIVATIVES” (Janssen Sciences Ireland Unlimited Company, priority 2019, published 2022).

Assays:
[1] = target: T1, human TLR8 (Homo sapiens, UniProt Q9NR97); test: TLR8 cellular NFκB-luc reporter assay; type: cell-based; set-up: unit not given here; settings: lowest effective concentration; HEK293 cells transiently transfected with TLR8 and NFκB-luc, 6 h incubation
T1 construct: expressed in transfected cells; host or cells: HEK293
T1 sequence (Q9NR97 27-1041): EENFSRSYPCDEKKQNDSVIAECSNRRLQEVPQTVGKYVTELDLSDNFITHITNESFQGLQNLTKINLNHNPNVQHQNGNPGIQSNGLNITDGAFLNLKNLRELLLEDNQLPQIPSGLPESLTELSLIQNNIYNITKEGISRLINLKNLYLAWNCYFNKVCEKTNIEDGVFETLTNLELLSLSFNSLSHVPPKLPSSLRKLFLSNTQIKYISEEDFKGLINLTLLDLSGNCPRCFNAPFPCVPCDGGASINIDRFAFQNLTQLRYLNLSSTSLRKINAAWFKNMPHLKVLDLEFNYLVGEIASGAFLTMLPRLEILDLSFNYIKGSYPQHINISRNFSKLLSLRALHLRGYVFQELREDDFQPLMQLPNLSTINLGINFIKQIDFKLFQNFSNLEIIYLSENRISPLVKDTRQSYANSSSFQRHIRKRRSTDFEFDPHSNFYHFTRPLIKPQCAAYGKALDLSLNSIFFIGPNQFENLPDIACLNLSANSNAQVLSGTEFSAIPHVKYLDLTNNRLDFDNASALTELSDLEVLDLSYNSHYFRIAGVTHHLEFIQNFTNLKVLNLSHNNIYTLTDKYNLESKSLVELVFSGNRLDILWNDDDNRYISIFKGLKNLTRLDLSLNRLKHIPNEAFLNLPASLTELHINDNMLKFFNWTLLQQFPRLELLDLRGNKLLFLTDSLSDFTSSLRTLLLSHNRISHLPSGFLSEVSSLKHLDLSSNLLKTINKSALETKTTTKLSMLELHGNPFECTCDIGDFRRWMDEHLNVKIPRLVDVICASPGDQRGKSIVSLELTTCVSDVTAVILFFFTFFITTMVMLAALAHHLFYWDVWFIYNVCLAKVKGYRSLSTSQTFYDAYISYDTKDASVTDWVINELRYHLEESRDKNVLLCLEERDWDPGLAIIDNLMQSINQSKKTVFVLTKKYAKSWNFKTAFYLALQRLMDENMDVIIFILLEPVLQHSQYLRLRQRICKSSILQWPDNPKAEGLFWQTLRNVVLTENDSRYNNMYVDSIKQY
Description: (§1) The ability of compounds to activate human TLR7 and/or TLR8 was assessed in a cellular reporter assay using HEK293 cells transiently transfected with a TLR7 or TLR8 expression vector and NFκB-luc reporter construct. In one instance, the TLR expression construct expresses the respective wild type sequence or a mutant sequence comprising a deletion in the second leucine-rich repeat of the TLR.
(§2) HEK293 cells were grown in culture medium (DMEM supplemented with 10% FCS and 2 mM Glutamine). For transfection of cells in 10 cm dishes, cells were detached with Trypsin-EDTA, transfected with a mix of CMV-TLR7 or TLR8 plasmid (750 ng), NFκB-luc plasmid (375 ng) and a transfection reagent and incubated 24 h at 37° C. in a humidified 5% CO2 atmosphere. Transfected cells were then detached with Trypsin-EDTA, washed in PBS and re-suspended in medium to a density of 1.67×10^5 cells/mL. Thirty microliters of cells were then dispensed into each well in 384-well plates, where 10 μL of compound in 4% DMSO was already present. Following 6 h incubation at 37° C., 5% CO2, the luciferase activity was determined by adding 15 μl of STEADY LITE PLUS substrate (PERKIN ELMER) to each well and readout performed on a VIEWLUX ULTRAHTS microplate imager (PERKIN ELMER). Dose response curves were generated from measurements performed in quadruplicates. Lowest effective concentrations (LEC) values, defined as the concentration that induces an effect which is at least two-fold above the standard deviation of the assay, were determined for each compound.

[2] = target: T2, human TLR7 (Homo sapiens, UniProt Q9NYK1); test: TLR7 cellular NFκB-luc reporter assay; type: cell-based; set-up: unit not given here; settings: lowest effective concentration; HEK293 cells transiently transfected with TLR7 and NFκB-luc, 6 h incubation
T2 construct: expressed in transfected cells; host or cells: HEK293
T2 sequence (Q9NYK1 27-1049): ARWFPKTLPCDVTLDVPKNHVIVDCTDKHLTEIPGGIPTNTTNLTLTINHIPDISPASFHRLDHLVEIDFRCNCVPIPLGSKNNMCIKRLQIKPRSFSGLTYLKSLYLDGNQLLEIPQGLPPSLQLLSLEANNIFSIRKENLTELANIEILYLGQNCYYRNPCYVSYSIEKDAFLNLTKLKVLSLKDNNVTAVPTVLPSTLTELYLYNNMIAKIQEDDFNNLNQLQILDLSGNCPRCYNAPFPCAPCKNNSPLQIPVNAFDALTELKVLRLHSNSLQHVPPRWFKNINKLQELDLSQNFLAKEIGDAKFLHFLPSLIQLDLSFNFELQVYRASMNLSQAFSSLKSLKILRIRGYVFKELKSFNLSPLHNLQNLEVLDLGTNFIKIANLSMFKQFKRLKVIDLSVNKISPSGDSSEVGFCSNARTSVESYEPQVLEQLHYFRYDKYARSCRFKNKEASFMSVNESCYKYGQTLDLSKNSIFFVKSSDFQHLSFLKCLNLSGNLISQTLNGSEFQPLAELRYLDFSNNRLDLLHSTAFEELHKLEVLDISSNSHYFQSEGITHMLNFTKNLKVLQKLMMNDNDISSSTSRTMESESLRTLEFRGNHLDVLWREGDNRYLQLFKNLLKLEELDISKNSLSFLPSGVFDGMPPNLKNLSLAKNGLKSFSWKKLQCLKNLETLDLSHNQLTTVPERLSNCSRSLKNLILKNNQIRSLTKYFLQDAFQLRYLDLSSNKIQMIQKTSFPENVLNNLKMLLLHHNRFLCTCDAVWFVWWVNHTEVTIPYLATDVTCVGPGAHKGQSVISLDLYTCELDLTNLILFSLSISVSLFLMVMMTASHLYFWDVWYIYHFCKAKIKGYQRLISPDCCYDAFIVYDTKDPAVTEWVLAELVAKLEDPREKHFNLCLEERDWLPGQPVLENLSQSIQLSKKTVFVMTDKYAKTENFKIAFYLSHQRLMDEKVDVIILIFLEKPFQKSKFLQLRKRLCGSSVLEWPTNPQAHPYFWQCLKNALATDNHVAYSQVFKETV
Description: as §1, §2

Row | hTLR8-wt (LEC) [1] | hTLR7-wt (LEC) [2] | Compound
1 | 0.35 | >100 | CCCC[C@H](CO)Nc1nc(N)nc2cccc(C3CC3)c12 [Compound 99, (R)-2-((2-amino-5-cyclopropylquinazolin-4-yl)amino)hexan-1-ol]
2 | 0.07 | 27.7 | CCCC[C@H](CO)Nc1nc(N)nc2cccc(F)c12 [Compound 100, (R)-2-((2-amino-5-fluoroquinazolin-4-yl)amino)hexan-1-ol]
3 | 0.66 | >100 | CCCC[C@H](CO)Nc1nc(N)nc2cccc(C(F)(F)F)c12 [Compound 101, (R)-2-((2-amino-5-(trifluoromethyl)quinazolin-4-yl)amino)hexan-1-ol]
4 | 0.14 | >100 | CCCC[C@H](CO)Nc1nc(N)nc2cc(C#N)ccc12 [Compound 102, (R)-2-amino-4-((1-hydroxyhexan-2-yl)amino)quinazoline-7-carbonitrile]
5 | 0.38 | >25 | CCCC[C@H](CO)Nc1nc(N)nc2cc(-c3nnco3)ccc12 [Compound 103, (R)-2-((2-amino-7-(1,3,4-oxadiazol-2-yl)quinazolin-4-yl)amino)hexan-1-ol]
6 | 5.75 | >25 | CCC[C@H](CO)Nc1nc(N)nc2c(C)cccc12 [Compound 104, (R)-2-((2-amino-8-methylquinazolin-4-yl)amino)pentan-1-ol]
7 | 0.46 | >25 | CCCC[C@H](CO)Nc1nc(N)nc2c(C)cccc12 [Compound 105, (R)-2-((2-amino-8-methylquinazolin-4-yl)amino)hexan-1-ol]
8 | 2.72 | >25 | CCCC[C@H](CO)Nc1nc(N)nc2c(Cl)cccc12 [Compound 106, (R)-2-((2-amino-8-chloroquinazolin-4-yl)amino)hexan-1-ol]
9 | 0.11 | >25 | CCCC[C@H](CO)Nc1nc(N)nc2c(F)cccc12 [Compound 107, (R)-2-((2-amino-8-fluoroquinazolin-4-yl)amino)hexan-1-ol]
10 | 3.27 | >25 | CCC[C@H](CO)Nc1nc(N)nc2c(F)cccc12 [Compound 108, (R)-2-((2-amino-8-fluoroquinazolin-4-yl)amino)pentan-1-ol]
11 | 0.64 | >25 | CCCC[C@H](COC(=O)C(C)C)Nc1nc(N)nc2c(C)cccc12 [Compound 109, (R)-2-((2-amino-8-methylquinazolin-4-yl)amino)hexyl isobutyrate]
12 | 0.04 |  | CCCC[C@H](CO)Nc1nc(N)nc2cc(F)ccc12 [Compound 111, (R)-2-((2-amino-7-fluoroquinazolin-4-yl)amino)hexan-1-ol]
13 |  | >100 | CCCC[C@H](CO)Nc1nc(N)nc2cccc(Cl)c12 [Compound 113, (R)-2-((2-amino-5-chloroquinazolin-4-yl)amino)hexan-1-ol]
14 |  | >100 | CCCC[C@H](CO)Nc1nc(N)nc2cccc(C)c12 [Compound 114, (R)-2-((2-amino-5-methylquinazolin-4-yl)amino)hexan-1-ol]
15 | 3.74 | >50 | CCCC[C@H](CO)Nc1nc(N)nc2c(OC)cccc12 [Compound 115, (R)-2-((2-amino-8-methoxyquinazolin-4-yl)amino)hexan-1-ol]
16 | 0.57 | >100 | CCCC[C@H](CO)Nc1nc(N)nc2cc(C(=O)OC)ccc12 [Compound 116, Methyl (R)-2-amino-4-((1-hydroxyhexan-2-yl)amino)quinazoline-7-carboxylate]
17 | 0.41 | >100 | CCCC[C@H](CO)Nc1nc(N)nc2c(F)c(F)ccc12 [Compound 117, (R)-2-((2-amino-7,8-difluoroquinazolin-4-yl)amino)hexan-1-ol]
18 | 0.7 | >50 | CSCC[C@H](CO)Nc1nc(N)nc2cccc(F)c12 [Compound 118, (R)-2-((2-amino-5-fluoroquinazolin-4-yl)amino)-4-(methylthio)butan-1-ol]
19 | 0.09 | 1.71 | CC[C@H](C)[C@H](CO)Nc1nc(N)nc2cccc(F)c12 [Compound 119, (2R,3S)-2-((2-amino-5-fluoroquinazolin-4-yl)amino)-3-methylpentan-1-ol]
